Source: US12479847B2 (DANA-FARBER CANCER INSTITUTE, INC., priority 2019, dated 2025)

Experiments:
Assay in all cases: KINOMEscan (ScanMAX) kinase profiling
Format in all cases: binding
panel of 468 kinases [1] = target: T1, panel of 468 kinases (Homo sapiens, UniProt Q05655); conditions: PRKCD; 1 μM; read-out: % control
T1 construct: purchased KINOMEscan (ScanMAX) service

panel of 468 kinases [2] = target: T2, panel of 468 kinases (Homo sapiens, UniProt Q12866); conditions: MERTK; 1 μM; read-out: % control
T2 construct: purchased KINOMEscan (ScanMAX) service
T2 sequence (Q12866 21-999): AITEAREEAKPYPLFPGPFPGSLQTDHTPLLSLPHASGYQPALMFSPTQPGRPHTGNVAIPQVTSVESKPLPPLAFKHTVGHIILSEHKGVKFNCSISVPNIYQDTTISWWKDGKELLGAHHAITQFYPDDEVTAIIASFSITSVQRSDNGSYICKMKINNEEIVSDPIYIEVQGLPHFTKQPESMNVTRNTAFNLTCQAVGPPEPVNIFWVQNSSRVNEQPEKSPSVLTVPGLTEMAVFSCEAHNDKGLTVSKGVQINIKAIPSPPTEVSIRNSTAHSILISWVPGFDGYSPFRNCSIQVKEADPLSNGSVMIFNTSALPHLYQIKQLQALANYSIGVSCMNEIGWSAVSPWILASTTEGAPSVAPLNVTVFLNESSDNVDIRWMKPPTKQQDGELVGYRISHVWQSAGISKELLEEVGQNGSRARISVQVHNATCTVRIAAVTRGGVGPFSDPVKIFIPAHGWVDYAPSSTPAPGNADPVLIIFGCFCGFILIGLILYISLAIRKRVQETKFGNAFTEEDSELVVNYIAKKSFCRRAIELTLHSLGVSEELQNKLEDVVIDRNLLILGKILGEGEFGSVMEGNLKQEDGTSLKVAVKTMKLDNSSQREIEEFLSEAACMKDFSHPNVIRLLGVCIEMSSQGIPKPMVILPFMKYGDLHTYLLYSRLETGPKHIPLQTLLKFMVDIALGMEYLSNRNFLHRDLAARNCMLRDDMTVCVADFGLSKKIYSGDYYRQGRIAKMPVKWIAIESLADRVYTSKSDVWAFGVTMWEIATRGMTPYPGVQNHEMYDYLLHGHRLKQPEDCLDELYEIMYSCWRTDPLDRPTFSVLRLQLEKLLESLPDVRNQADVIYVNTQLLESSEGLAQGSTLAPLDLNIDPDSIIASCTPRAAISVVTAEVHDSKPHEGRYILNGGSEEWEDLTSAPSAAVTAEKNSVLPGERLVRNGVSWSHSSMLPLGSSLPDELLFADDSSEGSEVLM

panel of 468 kinases [3] = target: T3, panel of 468 kinases (Homo sapiens, UniProt Q7KZI7); conditions: MARK2; 1 μM; read-out: % control
T3 construct: purchased KINOMEscan (ScanMAX) service

panel of 468 kinases [4] = target: T4, panel of 468 kinases (Homo sapiens, UniProt Q13557); conditions: CAMK2D; 1 μM; read-out: % control
T4 construct: purchased KINOMEscan (ScanMAX) service

panel of 468 kinases [5] = target: T5, panel of 468 kinases (Homo sapiens, UniProt O75460); conditions: ERN1; 1 μM; read-out: % control
T5 construct: purchased KINOMEscan (ScanMAX) service

panel of 468 kinases [6] = target: T6, panel of 468 kinases (Homo sapiens, UniProt P42684); conditions: ABL2; 1 μM; read-out: % control
T6 construct: purchased KINOMEscan (ScanMAX) service

panel of 468 kinases [7] = target: T7, panel of 468 kinases (Homo sapiens, UniProt O95382); conditions: ASK2; 1 μM; read-out: % control
T7 construct: purchased KINOMEscan (ScanMAX) service
T7 sequence (O95382 1-1288): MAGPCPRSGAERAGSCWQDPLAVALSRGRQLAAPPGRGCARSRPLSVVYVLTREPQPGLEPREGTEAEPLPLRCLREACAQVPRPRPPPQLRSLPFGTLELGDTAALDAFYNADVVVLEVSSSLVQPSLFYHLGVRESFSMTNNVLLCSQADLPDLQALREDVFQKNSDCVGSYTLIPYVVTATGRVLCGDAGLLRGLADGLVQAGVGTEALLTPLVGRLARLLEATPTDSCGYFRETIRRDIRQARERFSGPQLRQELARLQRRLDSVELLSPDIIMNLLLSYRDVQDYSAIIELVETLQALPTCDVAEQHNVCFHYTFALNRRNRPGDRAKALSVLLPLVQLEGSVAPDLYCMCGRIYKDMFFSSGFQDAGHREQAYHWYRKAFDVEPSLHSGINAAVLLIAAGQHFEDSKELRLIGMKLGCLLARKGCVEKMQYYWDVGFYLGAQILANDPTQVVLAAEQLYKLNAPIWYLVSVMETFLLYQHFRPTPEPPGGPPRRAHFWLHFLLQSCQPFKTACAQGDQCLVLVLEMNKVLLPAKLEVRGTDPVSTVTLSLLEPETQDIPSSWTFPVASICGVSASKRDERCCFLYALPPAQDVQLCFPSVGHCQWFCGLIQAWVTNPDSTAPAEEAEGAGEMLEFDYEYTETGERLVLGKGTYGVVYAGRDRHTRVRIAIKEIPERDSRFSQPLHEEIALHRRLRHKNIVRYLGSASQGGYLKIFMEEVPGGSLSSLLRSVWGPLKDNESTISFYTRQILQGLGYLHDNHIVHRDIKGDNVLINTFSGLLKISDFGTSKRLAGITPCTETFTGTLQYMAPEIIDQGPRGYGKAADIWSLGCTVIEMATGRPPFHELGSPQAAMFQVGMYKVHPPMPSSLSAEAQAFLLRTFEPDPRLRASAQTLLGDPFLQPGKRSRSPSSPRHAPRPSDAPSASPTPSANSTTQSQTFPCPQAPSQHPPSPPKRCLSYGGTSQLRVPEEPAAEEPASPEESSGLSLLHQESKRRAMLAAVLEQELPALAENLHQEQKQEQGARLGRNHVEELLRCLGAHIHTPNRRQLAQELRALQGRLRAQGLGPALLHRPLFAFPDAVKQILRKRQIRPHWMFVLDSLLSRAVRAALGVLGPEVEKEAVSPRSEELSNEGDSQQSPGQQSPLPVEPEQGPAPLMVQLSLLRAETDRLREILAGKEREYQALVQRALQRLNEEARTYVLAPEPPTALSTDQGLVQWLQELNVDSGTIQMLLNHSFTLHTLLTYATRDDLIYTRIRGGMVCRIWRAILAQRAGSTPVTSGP

T5 sequence (O75460 19-977): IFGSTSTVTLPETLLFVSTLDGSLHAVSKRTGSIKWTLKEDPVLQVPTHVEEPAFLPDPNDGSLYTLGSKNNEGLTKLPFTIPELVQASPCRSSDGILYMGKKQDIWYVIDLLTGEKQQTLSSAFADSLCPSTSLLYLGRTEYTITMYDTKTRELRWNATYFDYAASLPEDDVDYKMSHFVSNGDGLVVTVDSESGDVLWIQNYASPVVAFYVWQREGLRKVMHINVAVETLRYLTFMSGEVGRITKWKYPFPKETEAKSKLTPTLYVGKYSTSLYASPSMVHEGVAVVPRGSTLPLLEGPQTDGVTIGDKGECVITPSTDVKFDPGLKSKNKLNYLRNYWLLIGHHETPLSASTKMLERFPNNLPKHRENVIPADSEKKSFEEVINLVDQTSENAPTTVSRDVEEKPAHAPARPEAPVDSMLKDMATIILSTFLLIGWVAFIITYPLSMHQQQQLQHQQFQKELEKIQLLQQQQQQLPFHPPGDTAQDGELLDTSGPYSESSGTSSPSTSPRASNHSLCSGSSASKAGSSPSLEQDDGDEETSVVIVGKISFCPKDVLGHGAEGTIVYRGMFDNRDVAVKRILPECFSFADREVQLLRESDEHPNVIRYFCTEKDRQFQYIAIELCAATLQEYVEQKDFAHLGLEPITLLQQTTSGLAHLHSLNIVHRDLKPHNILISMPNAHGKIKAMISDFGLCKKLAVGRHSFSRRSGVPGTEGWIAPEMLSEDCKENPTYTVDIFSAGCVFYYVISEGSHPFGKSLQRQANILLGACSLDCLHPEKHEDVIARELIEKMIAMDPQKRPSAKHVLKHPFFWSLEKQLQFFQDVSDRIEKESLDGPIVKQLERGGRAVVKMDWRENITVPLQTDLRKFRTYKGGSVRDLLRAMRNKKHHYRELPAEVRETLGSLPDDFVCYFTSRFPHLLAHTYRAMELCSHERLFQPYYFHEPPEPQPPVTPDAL
T6 sequence (P42684 whole entry): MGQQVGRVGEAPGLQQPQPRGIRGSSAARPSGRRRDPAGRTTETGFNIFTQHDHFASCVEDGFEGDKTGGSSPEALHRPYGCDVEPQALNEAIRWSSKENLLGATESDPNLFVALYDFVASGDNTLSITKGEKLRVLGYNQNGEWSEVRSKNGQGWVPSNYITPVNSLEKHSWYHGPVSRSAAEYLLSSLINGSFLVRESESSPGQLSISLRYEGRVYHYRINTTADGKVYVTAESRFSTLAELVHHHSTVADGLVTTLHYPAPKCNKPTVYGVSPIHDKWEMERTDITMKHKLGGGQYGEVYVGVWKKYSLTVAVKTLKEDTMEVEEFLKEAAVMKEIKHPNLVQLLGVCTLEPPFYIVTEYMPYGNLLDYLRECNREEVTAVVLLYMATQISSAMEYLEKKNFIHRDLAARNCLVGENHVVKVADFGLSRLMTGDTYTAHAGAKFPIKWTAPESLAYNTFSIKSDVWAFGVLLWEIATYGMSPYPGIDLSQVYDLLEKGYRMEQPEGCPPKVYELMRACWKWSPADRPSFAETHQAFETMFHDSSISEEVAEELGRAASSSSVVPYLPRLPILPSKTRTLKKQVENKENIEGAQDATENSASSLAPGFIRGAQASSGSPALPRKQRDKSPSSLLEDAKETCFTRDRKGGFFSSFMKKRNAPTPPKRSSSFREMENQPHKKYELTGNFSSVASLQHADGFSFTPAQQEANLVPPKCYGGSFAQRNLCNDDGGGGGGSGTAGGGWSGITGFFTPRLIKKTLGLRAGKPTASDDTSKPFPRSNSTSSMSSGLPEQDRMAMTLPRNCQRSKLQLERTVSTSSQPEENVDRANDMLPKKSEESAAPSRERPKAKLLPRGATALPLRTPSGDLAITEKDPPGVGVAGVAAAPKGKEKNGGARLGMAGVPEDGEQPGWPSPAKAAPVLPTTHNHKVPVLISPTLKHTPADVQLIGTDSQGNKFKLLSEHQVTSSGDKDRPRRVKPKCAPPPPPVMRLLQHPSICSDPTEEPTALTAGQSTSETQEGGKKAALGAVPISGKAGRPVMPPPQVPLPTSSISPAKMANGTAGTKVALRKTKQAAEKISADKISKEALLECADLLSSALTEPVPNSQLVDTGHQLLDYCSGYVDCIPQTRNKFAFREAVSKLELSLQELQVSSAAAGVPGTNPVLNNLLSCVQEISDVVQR
T3 sequence (Q7KZI7 whole entry): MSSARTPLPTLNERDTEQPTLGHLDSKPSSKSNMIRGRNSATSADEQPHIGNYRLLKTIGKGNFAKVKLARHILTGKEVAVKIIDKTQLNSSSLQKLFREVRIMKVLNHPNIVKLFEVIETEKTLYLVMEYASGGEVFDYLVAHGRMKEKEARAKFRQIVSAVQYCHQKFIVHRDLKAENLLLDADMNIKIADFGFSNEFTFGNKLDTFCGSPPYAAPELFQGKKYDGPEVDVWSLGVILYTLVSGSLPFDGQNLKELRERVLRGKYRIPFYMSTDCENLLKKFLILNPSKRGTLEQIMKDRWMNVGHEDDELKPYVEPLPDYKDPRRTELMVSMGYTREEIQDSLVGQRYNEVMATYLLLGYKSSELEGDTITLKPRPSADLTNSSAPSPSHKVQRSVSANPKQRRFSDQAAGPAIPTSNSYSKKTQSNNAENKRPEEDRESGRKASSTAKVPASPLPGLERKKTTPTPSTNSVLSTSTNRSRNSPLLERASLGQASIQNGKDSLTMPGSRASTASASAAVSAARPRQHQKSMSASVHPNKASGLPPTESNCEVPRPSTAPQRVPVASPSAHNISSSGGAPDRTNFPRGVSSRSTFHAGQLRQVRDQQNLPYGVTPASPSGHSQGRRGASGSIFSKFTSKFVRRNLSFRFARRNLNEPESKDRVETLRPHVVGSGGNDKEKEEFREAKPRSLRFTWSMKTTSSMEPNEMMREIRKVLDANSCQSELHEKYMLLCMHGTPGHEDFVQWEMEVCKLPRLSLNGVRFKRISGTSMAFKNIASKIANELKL
T1 sequence (Q05655 whole entry): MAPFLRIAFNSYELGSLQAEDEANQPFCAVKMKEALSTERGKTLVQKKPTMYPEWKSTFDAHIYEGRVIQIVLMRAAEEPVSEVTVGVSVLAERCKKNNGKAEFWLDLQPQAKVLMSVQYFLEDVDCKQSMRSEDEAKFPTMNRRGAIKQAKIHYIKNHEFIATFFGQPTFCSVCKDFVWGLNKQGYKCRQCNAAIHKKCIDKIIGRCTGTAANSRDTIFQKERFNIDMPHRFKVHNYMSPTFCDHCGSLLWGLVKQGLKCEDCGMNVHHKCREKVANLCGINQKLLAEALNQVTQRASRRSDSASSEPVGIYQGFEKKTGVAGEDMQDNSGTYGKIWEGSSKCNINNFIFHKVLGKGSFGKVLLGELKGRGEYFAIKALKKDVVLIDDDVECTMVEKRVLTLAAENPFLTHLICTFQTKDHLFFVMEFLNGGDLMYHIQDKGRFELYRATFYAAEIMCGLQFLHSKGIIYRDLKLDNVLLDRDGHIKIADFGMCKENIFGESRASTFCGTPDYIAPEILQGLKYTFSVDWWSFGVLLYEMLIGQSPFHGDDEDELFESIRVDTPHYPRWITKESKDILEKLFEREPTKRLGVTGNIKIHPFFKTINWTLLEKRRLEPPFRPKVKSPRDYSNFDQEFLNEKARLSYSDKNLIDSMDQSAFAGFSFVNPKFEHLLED
T4 sequence (Q13557 whole entry): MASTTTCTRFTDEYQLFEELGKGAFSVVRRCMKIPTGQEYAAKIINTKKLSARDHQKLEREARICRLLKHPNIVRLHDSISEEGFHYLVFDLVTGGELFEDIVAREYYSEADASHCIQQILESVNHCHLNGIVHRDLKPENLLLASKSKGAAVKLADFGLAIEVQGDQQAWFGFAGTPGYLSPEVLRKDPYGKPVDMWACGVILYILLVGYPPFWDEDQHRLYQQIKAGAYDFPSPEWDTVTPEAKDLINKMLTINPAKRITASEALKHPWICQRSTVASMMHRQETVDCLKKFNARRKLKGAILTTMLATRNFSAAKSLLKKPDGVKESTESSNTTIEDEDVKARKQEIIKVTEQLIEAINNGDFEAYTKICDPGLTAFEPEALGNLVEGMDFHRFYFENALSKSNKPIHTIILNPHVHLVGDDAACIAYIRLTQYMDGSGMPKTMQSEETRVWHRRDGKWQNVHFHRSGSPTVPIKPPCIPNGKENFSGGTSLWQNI

Row | SMILES | remaining binding at 1 µM (panel of 468 kinases [1]) | remaining binding at 1 µM (panel of 468 kinases [2]) | remaining binding at 1 µM (panel of 468 kinases [3]) | remaining binding at 1 µM (panel of 468 kinases [4]) | remaining binding at 1 µM (panel of 468 kinases [5]) | remaining binding at 1 µM (panel of 468 kinases [6]) | remaining binding at 1 µM (panel of 468 kinases [7])
1 | CNc1nc(Nc2ccc(S(=O)(=O)N3CCC(N4CCOCC4)CC3)cc2OC)nc2[nH]cc(Cl)c12 [Compound 12, 5-chloro-N2-(2-methoxy-4-((4-morpholinopiperidin-1-yl)sulfonyl)phenyl)-N4-methyl-7H-pyrrolo[2,3-d]pyrimidine-2,4-diamine] | 94% | 96% | 100% | 96% | 67% | 78% | 53%
2 | CNc1nc(Nc2ccc(C(=O)N3CCC(N4CCOCC4)CC3)c3c2OCO3)nc2[nH]cc(Cl)c12 [Compound 75, (7-((5-chloro-4-(methylamino)-7H-pyrrolo[2,3-d]pyrimidin-2-yl)amino)benzo[d][1,3]dioxol-4-yl)(4-morpholinopiperidin-1-yl)methanone] | 89% | 85% | 100% | 89% | 73% | 100% | 39%
3 | CNc1nc(Nc2ccc(P3(=O)CCN(C4CCOCC4)CC3)cc2OC)nc2[nH]cc(Cl)c12 [Compound 77, 4-(4-((5-chloro-4-(methylamino)-7H-pyrrolo[2,3-d]pyrimidin-2-yl)amino)-3-methoxyphenyl)-1-(tetrahydro-2H-pyran-4-yl)-1,4-azaphosphinane 4-oxide] | 95% | 98% | 100% | 89% | 60% | 100% | 51%
